Structures are written as SMILES. Counter-ions that a name gives are not always drawn.

Chain of adenosine A2A receptor (P29274 whole entry): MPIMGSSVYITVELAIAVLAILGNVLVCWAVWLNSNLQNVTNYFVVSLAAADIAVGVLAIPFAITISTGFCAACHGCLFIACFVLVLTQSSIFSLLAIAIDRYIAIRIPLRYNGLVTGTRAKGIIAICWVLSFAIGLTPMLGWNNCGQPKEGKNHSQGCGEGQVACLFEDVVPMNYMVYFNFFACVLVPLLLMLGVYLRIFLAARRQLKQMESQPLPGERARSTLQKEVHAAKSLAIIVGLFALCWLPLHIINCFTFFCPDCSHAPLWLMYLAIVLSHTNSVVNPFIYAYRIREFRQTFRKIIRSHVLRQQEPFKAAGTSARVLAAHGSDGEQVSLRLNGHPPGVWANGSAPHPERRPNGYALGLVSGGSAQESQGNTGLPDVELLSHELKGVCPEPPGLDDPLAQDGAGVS

The target in this test is adenosine A2A receptor (Homo sapiens, UniProt P29274). The test can be described thus: adenosine A2A receptor agonist assay (method of Murphree et al.). The test is classed as binding. The settings on record: Mol Pharmacol 61, 455-462 (2002). The source says:
Compounds of formula (I) and their pharmaceutically acceptable salts are useful as pharmaceuticals. In particular, they activate the adenosine A2A receptor, i.e., they act as A2A receptor agonists.
Regarding `OC[C@H]1O[C@@H](n2cnc3c(NCC(c4ccccc4)c4ccccc4)nc(N4CC[C@H](c5ccc(F)cc5)C4)nc32)[C@H](O)[C@@H]1O` [Example 2, (2R,3R,4S,5R)-2-{6-(2,2-diphenyl-ethylamino)-2-[(R)-3-(4-fluoro-phenyl)-pyrrolidin-1-yl]-purin-9-yl}-5-hydroxymethyl-tetrahydro-furan-3,4-diol trifluoroacetate], the affinity, expressed as Ki, was 610 nM.

As to `N[C@@H]1CCN(c2nc(NCC(c3ccccc3)c3ccccc3)c3ncn([C@@H]4O[C@H](CO)[C@@H](O)[C@H]4O)c3n2)C1` [Example 7, (2R,3R,4S,5R)-2-[2-((R)-3-Amino-pyrrolidin-1-yl)-6-(2,2-diphenyl-ethylamino)-purin-9-yl]-5-hydroxymethyl-tetrahydro-furan-3,4-diol trifluoroacetate], the Ki (as a rule, a dissociation constant, usually derived from enzyme kinetics or from competition with a known ligand) came to 190 nM.

`O=C(NC1CCN(c2ccccn2)CC1)N[C@@H]1CCN(c2nc(NCC(c3ccccc3)c3ccccc3)c3ncn([C@@H]4O[C@H](CO)[C@@H](O)[C@H]4O)c3n2)C1` [Example 9, 1-{(R)-1-[9-((2R,3R,4S,5R)-3,4-Dihydroxy-5-hydroxymethyl-tetrahydro-furan-2-yl)-6-(2,2-diphenyl-ethylamino)-9H-purin-2-yl]-pyrrolidin-3-yl}-3-(3,4,5,6-tetrahydro-2H-[1,2′]bipyridinyl-4-yl)-urea trifluoroacetate] displayed a Ki of 160 nM.

On to `O=C(N[C@@H]1CCNC1)N[C@@H]1CCN(c2nc(NCC(c3ccccc3)c3ccccc3)c3ncn([C@@H]4O[C@H](CO)[C@@H](O)[C@H]4O)c3n2)C1` [Example 11, 1-{(R)-1-[9-((2R,3R,4S,5R)-3,4-Dihydroxy-5-hydroxymethyl-tetrahydro-furan-2-yl)-6-(2,2-diphenyl-ethylamino)-9H-purin-2-yl]-pyrrolidin-3-yl}-3-(R)-pyrrolidin-3-yl-urea trifluoroacetate], for which the Ki is 12 nM.

Compound `OC[C@H]1O[C@@H](n2cnc3c(NCC(c4ccccc4)c4ccccc4)nc(N4CC[C@@H](O)C4)nc32)[C@H](O)[C@@H]1O` [Example 13, (2R,3R,4S,5R)-2-[6-(2,2-diphenyl-ethylamino)-2-((R)-3-hydroxy-pyrrolidin-1-yl)-purin-9-yl]-5-hydroxymethyl-tetrahydro-furan-3,4-diol] registered a Ki of 54 nM.

Compound `CN(C)[C@@H]1CCN(c2nc(NCC(c3ccccc3)c3ccccc3)c3ncn([C@@H]4O[C@H](CO)[C@@H](O)[C@H]4O)c3n2)C1` [Example 22, (2R,3R,4S,5R)-2-[2-((R)-3-dimethylamino-pyrrolidin-1-yl)-6-(2,2-diphenyl-ethylamino)-purin-9-yl]-5-hydroxymethyl-tetrahydro-furan-3,4-diol trifluoroacetate] displayed a Ki of 0.5 nM.

`O=C(N[C@@H]1CCN(C(=O)NC2CCN(C(=O)OCc3ccccc3)CC2)C1)N[C@@H]1CCN(c2nc(NCC(c3ccccc3)c3ccccc3)c3ncn([C@@H]4O[C@H](CO)[C@@H](O)[C@H]4O)c3n2)C1` [Example 24, 4-{[(R)-3-(3-{(R)-1-[9-((2R,3R,4S,5R)-3,4-Dihydroxy-5-hydroxymethyl-tetrahydro-furan-2-yl)-6-(2,2-diphenyl-ethylamino)-9H-purin-2-yl]-pyrrolidine-3-yl}-ureido)-pyrrolidine-1-carbonyl]-amino}-piperidine-1-carboxylic acid benzyl ester trifluoroacetate] yielded a Ki of 59 nM.

In turn, `CCc1cc([C@H]2O[C@@H](n3cnc4c(N[C@H](CO)Cc5ccccc5)nc(N5CC[C@@H](N6CCCC6)C5)nc43)[C@H](O)[C@@H]2O)on1` [Example 65, (2R,3R,4S,5S)-2-[(R)-2-[1,3′]Bipyrrolidinyl-1′-yl-6-((S)-1-hydroxymethyl-2-phenyl-ethylamino)-purin-9-yl]-5-(3-ethyl-isoxazol-5-yl)-tetrahydro-furan-3,4-diol] yielded a Ki of 2 nM. Against the preceding compound, the Ki is about 30-fold lower.

Turning to `CCn1nnc(C2OC(n3cnc4c(NCC(c5ccc(O)cc5)c5ccc(O)cc5)nc(N5CCC(NC(=O)c6ccc(N7CCOCC7)nc6)C5)nc43)C(O)C2O)n1` [Example 77, N—((R)-1-{6-[2,2-bis-(4-Hydroxy-phenyl)-ethylamino]-g-[(2R,3R,4S,5R)-5-(2-ethyl-2H-tetrazol-5-yl)-3,4-dihydroxy-tetrahydro-furan-2-yl]-9H-purin-2-yl}-pyrrolidin-3-yl)-6-morpholin-4-yl-nicotinamide trifluoroacetate], the inhibitory constant (Ki) was 6 nM.

`CCn1nnc([C@H]2O[C@@H](n3cnc4c(NCCc5ccc(S(N)(=O)=O)cc5)nc(N5CC[C@@H](NC(=O)N[C@@H]6CCNC6)C5)nc43)[C@H](O)[C@@H]2O)n1` [Example 108, 4-(2-{9-[(2R,3R,4S,5R)-5-(2-Ethyl-2H-tetrazol-5-yl)-3,4-dihydroxy-tetrahydro-furan-2-yl]-2-[(R)-3-((R)-3-pyrrolidin-3-ylureido)-pyrrolidin-1-yl]-9H-purin-6-ylamino}-ethyl)-benzenesulfonamide trifluoroacetate] showed a Ki of 5 nM.

Turning to `CCn1nnc([C@H]2O[C@@H](n3cnc4c(NCC(c5ccccc5)c5ccccc5)nc(N5CC[C@@H](NC(=NCc6ccccn6)NC#N)C5)nc43)[C@H](O)[C@@H]2O)n1` [Example 122, N—((R)-1-{6-(2,2-Diphenyl-ethylamino)-9-[(2R,3R,4S,5R)-5-(2-ethyl-2H-tetrazol-5-yl)-3,4-dihydroxy-tetrahydro-furan-2-yl]-9H-purin-2-yl}-pyrrolidin-3-yl)-N′-cyano-N″-pyridin-2-ylmethyl-guanidine], the Ki came out at 4 nM.
